Experimental data published in ChEMBL document CHEMBL3425473, “Synthesis and biological evaluation of boswellic acid-NSAID hybrid molecules as anti-inflammatory and anti-arthritic agents” (Eur J Med Chem, 2015).
Calls of active or inactive are those of the source. The calls are words filed in the database; no cut-off is given here.

What was measured:
Rattus norvegicus [1] = assay: In vivo inhibition of COX-2 activity in Complete Freund's adjuvant-induced arthritic albino Wistar rat serum assessed as decrease in peroxidase activity measured as TMPD oxidation rate at 10 mg/kg administered via gavage daily started from day 7 and continued till day 21 after CFA injection by colorimetric analysis; assay type: functional, organism-based; design: dose 10 mg/kg
[2] = biological target: T1, Prostaglandin G/H synthase 2 (Homo sapiens) (UniProt P35354); assay: Inhibition of IL-1 beta-induced COX-2 activity in human SW982 cells assessed as enzyme activity at LD50 treated for 24 hrs prior to incubation with IL-1 beta for 6 hrs (reference value: 100.0%); assay type: cell-based; design: scale not given: the % may be the effect or the level left
T1 sequence (whole entry): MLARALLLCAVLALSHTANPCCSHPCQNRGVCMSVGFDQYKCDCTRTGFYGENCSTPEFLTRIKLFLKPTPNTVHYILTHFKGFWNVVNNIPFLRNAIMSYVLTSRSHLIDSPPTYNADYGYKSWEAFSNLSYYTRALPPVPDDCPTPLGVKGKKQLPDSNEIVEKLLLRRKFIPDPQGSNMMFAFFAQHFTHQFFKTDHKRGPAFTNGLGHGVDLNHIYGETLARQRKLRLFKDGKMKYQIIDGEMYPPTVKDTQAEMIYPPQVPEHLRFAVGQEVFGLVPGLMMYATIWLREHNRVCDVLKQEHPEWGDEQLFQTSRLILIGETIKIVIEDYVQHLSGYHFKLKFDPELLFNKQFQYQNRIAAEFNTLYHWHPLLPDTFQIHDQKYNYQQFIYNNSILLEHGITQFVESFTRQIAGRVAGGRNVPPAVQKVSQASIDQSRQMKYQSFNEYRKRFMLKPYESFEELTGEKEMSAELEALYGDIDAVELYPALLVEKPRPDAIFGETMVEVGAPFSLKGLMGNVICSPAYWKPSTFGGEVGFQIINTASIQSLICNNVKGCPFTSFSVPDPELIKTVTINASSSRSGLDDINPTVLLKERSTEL

SW982 = assay: Inhibition of IL-1 beta-induced LOX activity in human SW982 cells assessed as enzyme activity at LD50 treated for 24 hrs prior to incubation with IL-1 beta for 6 hrs (reference value: 100.0%); assay type: cell-based; design: scale not given: the % may be the effect or the level left
Rattus norvegicus [3] = assay: Reduction in neutrophil infiltration in Complete Freund's adjuvant-induced arthritic albino Wistar rat ankle joint at 10 mg/kg administered via gavage daily started from day 7 and continued till day 21 after CFA injection by hematoxylin-eosin staining based microscopic analysis; assay type: functional, organism-based; design: dose 10 mg/kg
[4] = Cytotoxicity against human SW982 cells after 24 hrs by MTT assay; assay type: cell-based; conditions: read-out: LD50

Row | Structure (SMILES) | inhibition (Rattus norvegicus [1]) | Activity [2] | Activity (SW982) | inhibition (Rattus norvegicus [3]) | CC50 at 24 h [4]
1 | COC(=O)[C@]1(C)[C@@H]2CC[C@]3(C)[C@H](C(=O)C=C4[C@@H]5[C@@H](C)[C@H](C)CC[C@]5(C)CC[C@]43C)[C@@]2(C)CC[C@H]1OC(=O)Cc1c(C)n(C(=O)c2ccc(Cl)cc2)c2ccc(OC)cc12 | Active | – | – | – | –
2 | COC(=O)[C@]1(C)[C@@H]2CC[C@]3(C)[C@H](C(=O)C=C4[C@@H]5[C@@H](C)[C@H](C)CC[C@]5(C)CC[C@]43C)[C@@]2(C)CC[C@H]1OC(=O)Cc1ccccc1Nc1c(Cl)cccc1Cl | Active | – | – | – | –
3 | COC(=O)[C@]1(C)[C@@H]2CC[C@]3(C)[C@H](CC=C4[C@@H]5[C@@H](C)[C@H](C)CC[C@]5(C)CC[C@]43C)[C@@]2(C)CC[C@H]1OC(=O)Cc1c(C)n(C(=O)c2ccc(Cl)cc2)c2ccc(OC)cc12 | Active | – | – | – | –
4 | COC(=O)[C@]1(C)[C@@H]2CC[C@]3(C)[C@H](CC=C4[C@@H]5[C@@H](C)[C@H](C)CC[C@]5(C)CC[C@]43C)[C@@]2(C)CC[C@H]1OC(=O)Cc1ccccc1Nc1c(Cl)cccc1Cl | Active | – | – | – | –
5 | COC(=O)[C@]1(C)[C@@H]2CC[C@]3(C)[C@H](CC=C4[C@@H]5[C@@H](C)[C@H](C)CC[C@]5(C)CC[C@]43C)[C@@]2(C)CC[C@H]1OC(=O)C(C)c1ccc(CC(C)C)cc1 (mixture of isomers) | Active | 30.2% | 65.8% | Active | 62.6 µM
6 | COC(=O)[C@]1(C)[C@@H]2CC[C@]3(C)[C@H](C(=O)C=C4[C@@H]5[C@@H](C)[C@H](C)CC[C@]5(C)CC[C@]43C)[C@@]2(C)CC[C@H]1OC(=O)C(C)c1ccc(CC(C)C)cc1 (mixture of isomers) | Active | 27.7% | 60.2% | Active | 40.6 µM
7 | COC(=O)[C@]1(C)[C@@H]2CC[C@]3(C)[C@H](C(=O)C=C4[C@@H]5[C@@H](C)[C@H](C)CC[C@]5(C)CC[C@]43C)[C@@]2(C)CC[C@H]1OC(=O)C(C)c1ccc2cc(OC)ccc2c1 (mixture of isomers) | Active | – | – | – | –
8 | COC(=O)[C@]1(C)[C@@H]2CC[C@]3(C)[C@H](CC=C4[C@@H]5[C@@H](C)[C@H](C)CC[C@]5(C)CC[C@]43C)[C@@]2(C)CC[C@H]1OC(=O)C(C)c1ccc2cc(OC)ccc2c1 (mixture of isomers) | Active | – | – | – | –
9 | C[C@H]1[C@H](C)CC[C@]2(C)CC[C@]3(C)C(=CC(=O)[C@@H]4[C@@]5(C)CC[C@@H](O)[C@](C)(C(=O)O)[C@@H]5CC[C@]43C)[C@H]12 [11-KETO BOSWELLIC ACID] | Active | 27.4% | 72.7% | Active | 82 µM
10 | C[C@H]1[C@H](C)CC[C@]2(C)CC[C@]3(C)C(=CC[C@@H]4[C@@]5(C)CC[C@@H](O)[C@](C)(C(=O)O)[C@@H]5CC[C@]43C)[C@H]12 [BOSWELLIC ACID] | – | 50.8% | 44% | – | 70.2 µM
11 | CC(C)Cc1ccc(C(C)C(=O)O)cc1 (configuration not stated) [IBUPROFEN] | Active | – | – | Active | 93 µM
